# Earlier results, collected in patent US20040072789A1, “Veterinary composition for the topical treatment of traumatized or inflamed skin” (priority 2000, published 2004).
# System: fungal infections of the skin
structure (smiles),measurement,value
COC1=CC(=O)C[C@@H](C)[C@]12Oc1c(Cl)c(OC)cc(OC)c1C2=O [griseofulvin],effect of topical administration on fungal infections of the skin,very limited effect
